Assay results: patent publication US5627173A, “Phosphonoacetic acid derivatives and their use for treating degenerative joint disorders” (Hoechst Aktiengesellschaft, priority 1995, dated 1997)
Values after ≈ are worked out from the molar mass of the structure shown.

Columns and labels:
matrix metalloproteases = assay: Inhibition of matrix metalloproteases (MMP from rabbit synoviocytes HIG-82, fluorescent substrate); assay type: biochemical
Experimental: After confluent cell growth, the MMP expression was induced in the serum-free 3F12 HAM medium by adding 0.3 μmol/l phorbol 12-myristate 13-acetate. The supernatant was removed after incubating at 37° C. for 20 hours.
Activation of the MMP: The supernatant was activated with trypsin (5 μg/ml). After 15 minutes at 37° C., the activation was stopped by adding 1 mmol/l phenylmethylsulfonyl fluoride (PMSF) and incubating for a further 10 minutes. The total volume of the mixture was 210 μl.
The test substance was added in the stated concentration (see table). […] The reaction was stopped after 30 minutes by adding 10 mmol/l EDTA. The total-volume of the mixture was 320 μl . The parameters measured were the fluorescence intensities at […]. In order to take account of the possible intrinsic fluorescence of the test substances, the fluorescence intensities from parallel measurements without substrate were subtracted from the measurements with substrate. All the steps took place at 20° C.

[1] = tested on: isolated strips of guinea pig lung; assay: Antagonism of LTD4-induced contraction of isolated strips of guinea pig lung; conditions: Cavia porcellus; agonist LTD4; read-out: Anticontractile effect (lung), concentration range corresponding to the IC50 value
Description: (§1) The test was based on the same principle as the test indicated in Pharmacological Test 5; however, strips of lung were used in this case.
(§2) The guinea pig was sacrificed under anesthesia with laughing gas. The entire lung tract was cut out starting from the trachea. The lobes of the lungs were cut in circular fashion to produce strips about 3 mm wide. The strips of the upper lobes were divided up in order to obtain a total of six strips of approximately equal size. The strips were suspended in the organ baths under a preload of 4 g. Modified Krebs-Henseleit solutions were used as nutrient solution. When platelet activating factor (PAF) was used as agonist, the composition of this solution corresponded to that for the agonist SP in Pharmacological Test 5; a Krebs-Henseleit solution as in the case of the agonist KCI (Pharm. Test 5) was used for the agonist LTD4. 95% by volume 02, 5% by volume CO2 was bubbled through the bath, and the bath temperature was 37° C. The test is carried out by a therapeutic/cumulative method with dose levels of 1, 3, 6 and 10 μg/ml.
(§3) The test animals, organ bath, vehicle, mode of administration corresponded to that stated for Pharmacological Test 5.

interleukin-1β = assay: Inhibition of release of interleukin-1β from human mononuclear cells; assay type: cell-based; conditions: 10 .parallel.mol/l (so in the source), IL-1β, LPS-stimulated, 20 to 22 hours
Experimental: Obtaining mononuclear cells from human blood: 10 ml of human blood stabilized with 1 ml of 3.8 percent sodium citrate solution were diluted with 10 ml of PM16 (Serra, Heidelberg), and an underlayer of 15 ml of Lymphoprep (Dr. Molter GmbH, Heidelberg) was introduced. The samples were centrifuged at 400 x g (Minifuge 2 Heraeus, Osterode) at room temperature for 40 minutes. The mononuclear cells were visible as a white ring at the Lymphoprep/plasma boundary. This ring was cautiously removed with a syringe, diluted with the same volume of PM16 and centrifuged at 400 x g for 10 minutes. The precipitate was washed with ^~ 10 ml of RPMI1640 (+300 mg/I L-glutamine, Gibco, Eggenstein). After the cells had been suspended in ^~ 1 ml of RPMI1640 (+300 mg/I L-glutamine, +25 mM HEPES, +100 μg/ml streptomycin, +100 μg/ml penicillin), the cell density was determined with a JT Coulter Counter (Coulter Diagnostics) and adjusted to 5.10^6 /ml. 90% of the resulting cells were lymphocytes and 10% were monocytes.
Inhibition of release of interleukin-1β: 230 μl of mononuclear cells were incubated with 10 μl of test substance (10 μM in dimethyl sulfoxide (DMSO)/water=1/10) and 10 μl of a lipopolysaccharide solution (500 μg dissolved in 1 ml of DMSO and diluted 1/10 with water before starting the test, from Salmonella abortus equi, (Sigma, Deisenhofen) at 37° C., 5% CO2 for 20 to 22 hours. The samples were cooled to 0° C. in an ice bath and centrifuged in a Sigma centrifuge (2 minutes; 2000 revolutions per minute (rpm)). Aliquots of the supernatant were determined using a commercially available ELISA 5(Biermann, Bad Nauheim).
All active substances were tested at a concentration of 10 .parallel.mol/l. IL-1β release was tested in each case.

[2] = tested on: isolated strips of guinea pig lung; assay: Antagonism of PAF-induced contraction of isolated strips of guinea pig lung; conditions: Cavia porcellus; agonist PAF; read-out: Anticontractile effect (lung), concentration range corresponding to the IC50 value
Description: as §1, §2, §3

[3] = tested on: isolated guinea pig trachea; assay: Antagonism of substance P-induced contraction of the isolated guinea pig trachea; conditions: Cavia porcellus; agonist substance P; read-out: Anticontractile effect (trachea), concentration range needed to bring about a dilatation corresponding to the ED50 range
Description: (§4) The compounds according to the invention are used as antagonists of the contraction of various parts of organs, in this case the isolated guinea pig trachea. The agonists used were KCl, PGF2a, calcium ionophore A23187 and substance P:
Antagonism is possible on the one hand by specific receptor antagonists, and on the other hand by inhibition of the downstream signal pathway.
(§5) The guinea pigs were sacrificed by lethal anesthesia with laughing gas. The trachea was dissected out over its entire length and cut into 15 individual cartilage rings. In each case five rings were connected together to form a chain and fixed in an organ bath under a preload of 3 g. After an equilibration period of 45 minutes, a contraction was induced with the agonist. Cumulative addition of the antagonist (test product) took place at the plateau 5 of the maximum. Evaluation took place as % change in strength based on the maximum contraction. The test was carried out at 37° C., and the physiological nutrient solution used was a modified Krebs-Henseleit solution through which 95% by volume 02 and 5% by volume CO2 was bubbled.
(§6) Test animals: Albino guinea pigs (102), weight: 200 to 300 g, male or female
(§7) Composition of the organ bath (nutrient solution):
(§8) Vehicle: Double-distilled water, ethanol or isopropanol; Administration: into the organ bath Number of administrations: cumulative, single doses for SP

[4] = tested on: isolated guinea pig trachea; assay: Antagonism of PGF2α-induced contraction of the isolated guinea pig trachea; conditions: Cavia porcellus; agonist PGF2α; read-out: Anticontractile effect (trachea), concentration range needed to bring about a dilatation corresponding to the ED50 range
Description: as §4
Inhibition of contractions induced by this cyclooxygenase product is possible only by competitive antagonism at the receptor or of the downstream signal pathway.
as §5, §6, §7, §8

[5] = tested on: isolated guinea pig trachea; assay: Antagonism of KCl-induced contraction of the isolated guinea pig trachea; conditions: Cavia porcellus; agonist KCl; read-out: Anticontractile effect (trachea), concentration range needed to bring about a dilatation corresponding to the ED50 range
Description: as §4
Products with a non-specific effect generally show a spasmolytic effect with respect to all agonists. KCI is representative here of non-specific, receptor-independent contraction because KCl-induced contractions are produced predominantly physically, that is to say by increasing the K+ concentration in the outside medium, and change the resting potential of the cell.
as §5, §6, §7, §8

SMILES	Inhibition of MMP, Inhibition (%) (matrix metalloproteases; 30 μM)	Inhibition of MMP, Inhibition (%) (matrix metalloproteases; 100 μM)	IC50 [1]	inhibition at 10 µM (interleukin-1β)	other results
COc1ccc(C=C(C(=O)OC(C)C)P(=O)(OC)OC)cc1OC [Compound 39]	19%	47%	~10 µg/mL (≈ 27.9 µM)	63%	Inhibition of MMP, Inhibition (%) (matrix metalloproteases; 10 μM): 16%
CC(C)OC(=O)C(=Cc1ccc(OCc2ccccc2)c(OCc2ccccc2)c1)P(=O)(O)O [Compound 51, Ammonium hydrogen 2-(3,4-dibenzyloxybenzylidene)-isopropoxycarbonylmethanephosphonate]		14%			
CCOP(=O)(OCC)C(Cc1ccc(OS(C)(=O)=O)c(OS(C)(=O)=O)c1)C(=O)OC(C)C (stereo not drawn) [Compound 46]			~10 µg/mL (≈ 19.4 µM)		IC50 [2]: 1 to 3 µg/mL (≈ 1.94 to 5.81 µM)
COc1cc(OC)c(OC)cc1C=C(C(=O)OC(C)C)P(=O)(OC)OC [Compound 35]	21%	52%		83%	
COc1ccc(C=C(C(=O)OC(C)C)P(=O)(OC)OC)cc1OCc1ccccc1 [Compound 14]	19%	50%			
COc1cc(CC(C(=O)OC(C)C)P(=O)(OC)OC)cc(OC)c1OC (stereo not drawn) [Compound 36]				15%	
CCOP(=O)(OCC)C(=Cc1ccc(OC(C)=O)c(OC(C)=O)c1)C(=O)OC [Compound 49]	8%	28%			
COP(=O)(OC)C(=Cc1ccc2c(c1)OCO2)C(=O)OC(C)C [Compound 42]			> 10 µg/mL	77%	IC50 [2]: 3 to 6 µg/mL (≈ 8.76 to 17.5 µM)
COc1ccc(C=C(C(=O)OC(C)C)P(=O)(OC)OC)c(OC)c1 [Compound 32]	22%	52%		80%	Inhibition of MMP, Inhibition (%) (matrix metalloproteases; 10 μM): 12%
CCOP(=O)(OCC)C(C#N)=Cc1ccc(OC)c(OCc2ccc(CBr)cc2)c1 [Compound 4]			3 to 6 µg/mL (≈ 6.07 to 12.1 µM)		IC50 [2]: 1 to 3 µg/mL (≈ 2.02 to 6.07 µM)
CCOC(=O)C(Cc1ccc(OC(C)=O)c(OC(C)=O)c1)P(=O)(OCC)OCC (racemic) [Compound 61, Ethyl 3-(3,4-diacetoxyphenyl)-2-(diethoxyphosphinyl) propionate (rac.)]			> 10 µg/mL		IC50 [2]: ~3 µg/mL (≈ 6.97 µM)
COc1ccc(CC(C(=O)OC(C)C)P(=O)(OC)OC)cc1OC (stereo not drawn) [Compound 41]			> 10 µg/mL	11%	IC50 [2]: 1 to 3 µg/mL (≈ 2.78 to 8.33 µM)
CCOP(=O)(OCC)C(C#N)=Cc1ccc2c(c1)OCCO2 [Compound 70]			~6 µg/mL (≈ 18.6 µM)		
COP(=O)(OC)C(Cc1ccc(OCc2ccccc2)c(OCc2ccccc2)c1)C(=O)OC(C)C (stereo not drawn) [Compound 25]	24%				
COc1cc(C=C(C(=O)OC(C)C)P(=O)(OC)OC)cc(OC)c1OC [Compound 31]	12%	35%		97%	Inhibition of MMP, Inhibition (%) (matrix metalloproteases; 10 μM): 8%
COc1cc(C=C(C(=O)OC(C)C)P(=O)(OC)OC)cc(OC)c1 [Compound 28]		9%			
COc1ccc(C=C(C(=O)OC(C)C)P(=O)(OC)OC)cc1O [Compound 26, Isopropyl 2-(dimethoxyphosphinyl)-3-(3-hydroxy-4-methoxy-phenyl)propenoate]		51%		59%	Inhibition of MMP, Inhibition (%) (matrix metalloproteases; 10 μM): 15%
CCOP(=O)(OCC)C(C#N)Cc1ccc(OC)c(OC)c1 (stereo not drawn) [Compound 34, 2-(diethoxyphosphinyl)-3-(3,4-dimethoxy-phenyl)propiononitrile]					EC50 [3]: 1 to 10 µg/mL (≈ 3.06 to 30.6 µM); EC50 [4]: > 10 µg/mL; EC50 [5]: > 10 µg/mL
CCOP(=O)(OCC)C(C#N)=Cc1ccc(OC(C)=O)c(OC(C)=O)c1 [Compound 56, 3-(3,4-Diacetoxyphenyl)-2-(diethoxyphosphinyl) acrylonitrile]			3 to 6 µg/mL (≈ 7.87 to 15.7 µM)		IC50 [2]: 1 to 3 µg/mL (≈ 2.62 to 7.87 µM)
COc1ccc(C=C(C(=O)OC(C)C)P(=O)(OC)OC)cc1OC1CCCC1 [Compound 21]	19%	51%			
CCOP(=O)(OCC)C(C#N)=Cc1ccc(OC)cc1OC [Compound 44]					EC50 [3]: 10 to 30 µg/mL (≈ 30.7 to 92.2 µM); EC50 [4]: ~6 µg/mL (≈ 18.4 µM); EC50 [5]: > 10 µg/mL
COc1ccc(C=C(C(=O)OC(C)C)P(=O)(O)O)cc1OC [Compound 50]		14%			
CCOP(=O)(OCC)C(=Cc1c(OC)cccc1OC)C(=O)OC(C)C [Compound 48]	9%	26%			Inhibition of MMP, Inhibition (%) (matrix metalloproteases; 10 μM): 7%
CCCCCCCCCCCCOc1cc(C=C(C#N)P(=O)(OCC)OCC)ccc1OC [Compound 1]			> 10 µg/mL		IC50 [2]: 1 to 3 µg/mL (≈ 2.09 to 6.26 µM)
CCOP(=O)(OCC)C(=Cc1ccc(OS(C)(=O)=O)c(OS(C)(=O)=O)c1)C(=O)OC(C)C [Compound 63]				92%	
COP(=O)(OC)C(=Cc1ccc(OCc2ccccc2)c(OCc2ccccc2)c1)C(=O)OC(C)C [Compound 27]	24%	48%		99%	
